Assay results: PubChem BioAssay AID2060496 (Molecular Pharmacology Branch, DTP, NCI, 2025)
“And” between values parts separate entries of the source, which are not always exact repeats. Identical values can stand only once. Blank lines part the entries; values can stand above or below the compound they belong to.

System: 276233-004-R-J1-PDC complex spheroid viability
Assay: Anticancer human tumor 276233-004-R-J1-PDC patient-derived colon adenocarcinoma cell line growth inhibition [GQUAD]
Conditions: for viability, T/C: stronger effect = lower value
Source text: DNA G-quadruplex Stabilizer Agents in Combinations in Complex Spheroids
A high-throughput screen of multi-cell type tumor spheroids was designed to identify active combinations of DNA G-quadruplex stabilizer agents and targeted small molecules. Complex spheroids include a stromal component modeled by human endothelial cells (HUVEC) and fibroblasts modeled by human mesenchymal stem cells (MSCs). The concentration ranges selected for each drug and investigational agent were based upon clinically achievable concentrations if the clinical Cmax of the agent was known.
Compounds. The drugs and investigational agents: pidnarulex (CX-5461; NSC782164), APTO-253 (NSC789042), BRACO-19 (NSC847499), peposertib (NSC802822), ceralasertib (NSC780249), elimusertib (NSC800525), camonsertib (NSC841442), AZD-1390 (NSC803789), olaparib (NSC753686), talazoparib (NSC767125), ART-558 (NSC835418), sotorasib (NSC818433), MRTX-1133 (NSC836407), SN-38 (NSC673596), topotecan (NSC609699), etoposide (NSC141540), doxorubicin (NSC123127), gemcitabine (NSC613327), 5-fluorouracil (NSC19893), paclitaxel (NSC125973), vemurafenib (NSC761431), panobinostat (NSC761190), R-306465 (JNJ-16241199; NSC773264), adavosertib (NSC754352), TP-3654 (NSC805149), carboplatin (NSC241240), KSQ-4279 (NSC840948), and staurosporine (NSC755774) were obtained from the National Cancer Institute (NCI) Developmental Therapeutics Program Chemical Repository (34). The FDA-approved anticancer drug set is available from the NCI Developmental Therapeutics Program. […] The stock solutions were prepared in dimethyl sulfoxide (DMSO, Sigma-Aldrich, St. Louis, MO, cat. D2650) at 800-fold the tested concentration and stored at -70 degrees C prior to their use. All drugs and investigational agents were tested over a range starting from a high concentration at or near the clinical Cmax and decreasing in half-log increments. If the clinical Cmax for an agent had not been determined, the highest concentration tested was 10 microM.
2.3 Cell Culture. All cells were maintained in an incubator at 37 degrees C and 5% CO2 with 95% humidity. The PDC lines were cultured according to standard operating procedures established by the NCI PDMR. All PDCs were thawed and cultured in Matrigel-coated flasks prepared with a working solution of 1X Ham's F-12 nutrient mix, without supplementation (Invitrogen, cat. 11765054), 100 U/mL penicillin-streptomycin (Invitrogen, cat. 15140122), and 2.5% Matrigel (Corning Inc., cat. 354248) for the first three passages. The 857933-349-R-J2-PDC line was cultured in 6C/Colon 1B media, which includes advanced DMEM/F-12 (Thermo Fisher Scientific, cat. 12634028), 10 mM HEPES (Thermo Fisher Scientific, cat. 15630080), 1X GlutaMAX supplement (Thermo Fisher Scientific, cat. 35050061), 0.1 mg/mL primocin (InvivoGen, cat. ant-pm-2), 10% defined fetal bovine serum, heat inactivated (HyClone Laboratories Inc., cat. SH30070.03HI), 50% L-WRN conditioned media (ATCC, cat. CRL-3276), 1.25 mM N-Acetyl-L-cysteine (Sigma-Aldrich, cat. A9165), 10 mM nicotinamide (Sigma-Aldrich, cat. N0636), 1X B-27 supplement (Thermo Fisher Scientific, cat. 17504044), 1X N-2 supplement (Thermo Fisher Scientific, cat. 17502048), 10 microM Y-27632 dihydrochloride (Tocris Bioscience, cat. 1254), and 50 ng/mL human EGF recombinant protein (Thermo Fisher Scientific, cat. PHG0311). The 485176-168-R4-J1-PDC line was cultured in Panc media, which includes all 6C/Colon 1B media components plus 100 ng/mL human FGF-10 (Thermo Fisher Scientific, cat. 100-26), 500 nM SB-431542 (Selleckchem, cat. S1067), and gastrin (Tocris, cat. 3006).
[…]
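Note: spheroids exposed to drugs for seven days.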
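Throughout, for viability, T/C: 100% = DMSO vehicle control viability.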

Structure (SMILES): Cc1cccc(N(C)C(=O)C2C(O)CCN2c2nc(C)cc(C(F)(F)F)c2C#N)c1 (stereo unspecified) + CN(C)c1ccc(Nc2c3ccc(NC(=O)CCN4CCCC4)cc3nc3cc(NC(=O)CCN4CCCC4)ccc23)cc1
IC50 (curve of first compound, second compound 0.0316 µM): > 10 µM | IC50 (curve of first compound, second compound 0.1 µM): > 10 µM | IC50 (curve of first compound, second compound 0.316 µM): > 10 µM | IC50 (curve of first compound, second compound 1 µM): > 10 µM | IC50 (curve of first compound, second compound 3.16 µM): > 10 µM | IC50 (curve of first compound, second compound 10 µM): < 0.0316 µM | viability, T/C (second compound 0.0316 µM, first compound 0.0316 µM): 77.3% | viability, T/C (second compound 0.0316 µM, first compound 0.1 µM): 74.1% | viability, T/C (second compound 0.0316 µM, first compound 0.316 µM): 86.7% | viability, T/C (second compound 0.0316 µM, first compound 1 µM): 97.1% | viability, T/C (second compound 0.0316 µM, first compound 3.16 µM): 98.1% | viability, T/C (second compound 0.0316 µM, first compound 10 µM): 101% | viability, T/C (second compound 0.1 µM, first compound 0.0316 µM): 96.8% | viability, T/C (second compound 0.1 µM, first compound 0.1 µM): 98.1% | viability, T/C (second compound 0.1 µM, first compound 0.316 µM): 89.5% | viability, T/C (second compound 0.1 µM, first compound 1 µM): 89.2% | viability, T/C (second compound 0.1 µM, first compound 3.16 µM): 86.5% | viability, T/C (second compound 0.1 µM, first compound 10 µM): 96% | viability, T/C (second compound 0.316 µM, first compound 0.0316 µM): 71.2% | viability, T/C (second compound 0.316 µM, first compound 0.1 µM): 75.4% | viability, T/C (second compound 0.316 µM, first compound 0.316 µM): 73.2% | viability, T/C (second compound 0.316 µM, first compound 1 µM): 50.7% | viability, T/C (second compound 0.316 µM, first compound 3.16 µM): 60.5% | viability, T/C (second compound 0.316 µM, first compound 10 µM): 68.1% | viability, T/C (second compound 1 µM, first compound 0.0316 µM): 57.3% | viability, T/C (second compound 1 µM, first compound 0.1 µM): 47.1% | viability, T/C (second compound 1 µM, first compound 0.316 µM): 63.1% | viability, T/C (second compound 1 µM, first compound 1 µM): 57.6% | viability, T/C (second compound 1 µM, first compound 3.16 µM): 51.2% | viability, T/C (second compound 1 µM, first compound 10 µM): 64.9% | viability, T/C (second compound 3.16 µM, first compound 0.0316 µM): 51% | viability, T/C (second compound 3.16 µM, first compound 0.1 µM): 49.3% | viability, T/C (second compound 3.16 µM, first compound 0.316 µM): 50.6% | viability, T/C (second compound 3.16 µM, first compound 1 µM): 55.9% | viability, T/C (second compound 3.16 µM, first compound 3.16 µM): 65.8% | viability, T/C (second compound 3.16 µM, first compound 10 µM): 68.7% | viability, T/C (second compound 10 µM, first compound 0.0316 µM): 39.7% | viability, T/C (second compound 10 µM, first compound 0.1 µM): 51.5% | viability, T/C (second compound 10 µM, first compound 0.316 µM): 41.2% | viability, T/C (second compound 10 µM, first compound 1 µM): 72.6% | viability, T/C (second compound 10 µM, first compound 3.16 µM): 63.1% | viability, T/C (second compound 10 µM, first compound 10 µM): 54.8%

IC50 (curve of compound): > 10 µM
Structure (SMILES): Cc1cccc(N(C)C(=O)C2C(O)CCN2c2nc(C)cc(C(F)(F)F)c2C#N)c1 (stereo unspecified)
viability, T/C (compound 0.0316 µM): 92.6% and 89.1% and 85.7% | viability, T/C (compound 0.1 µM): 69.5% and 106% and 83.8% | viability, T/C (compound 0.316 µM): 74.5% and 101% and 74.6% | viability, T/C (compound 1 µM): 94% and 109% and 85.7% | viability, T/C (compound 3.16 µM): 99.6% and 74.3% and 84.3% | viability, T/C (compound 10 µM): 111% and 91.5% and 99.2%

IC50 (compound alone, run of 02/20/2024): 2.51 µM [middle of 8 runs] | IC50 (compound alone, run of 02/26/2024): 1.35 µM [middle of 4 runs]
Structure (SMILES): Cc1[nH]c2ccc(F)cc2c1-c1nc2c3cccnc3c3ncccc3c2[nH]1
viability, T/C (compound 0.316 µM): 80.8% [middle of 12 runs] | viability, T/C (compound 1 µM): 73.4% [middle of 12 runs] | viability, T/C (compound 10 µM): 44.4% [middle of 12 runs]

IC50 (curve of compound): 3.04 µM and > 10 µM and 9.44 µM
Structure (SMILES): COc1cccc2c1C(=O)c1c(O)c3c(c(O)c1C2=O)CC(O)(C(=O)CO)CC3OC1CC(N)C(O)C(C)O1 (stereo unspecified)
viability, T/C (compound 0.0316 µM): 90.2% and 99.5% and 87% | viability, T/C (compound 0.1 µM): 90.8% and 78.6% and 69.9% | viability, T/C (compound 0.316 µM): 84.7% and 99.6% and 86.4% | viability, T/C (compound 1 µM): 67.4% and 66.3% and 80.7% | viability, T/C (compound 3.16 µM): 49.4% and 58.4% and 58.3% | viability, T/C (compound 10 µM): 44.2% and 70.7% and 49.6%
